From patent US9938322B2, “β-hairpin peptidomimetics” (priority 2013, dated 2018)
*1 amine or outer side, *2 acyl side, *3 side chain or, on linkers, in order; H or OH if unused. Where a SMILES comes first, the peptide text is derived from it. Side-chain parts run from the residue outwards. [ ]: non-standard residue; d: D form. The star is where a group is joined. Ala(4-thiazolyl) = N[C@@H](Cc1cscn1)C(=O)O; X2 = O=C([C@H](CCNCc1ccccn1)N[*:1])[*:2]; Pro(3S-OH) = O=C(O)[C@H]1NCC[C@@H]1O; Cha = N[C@@H](CC1CCCCC1)C(=O)O; NH(3-picolyl) = c1cncc(CN*)c1; Chg = N[C@H](C(=O)O)C1CCCCC1; Tle = CC(C)(C)[C@H](N)C(=O)O; dDab = NCC[C@@H](N)C(=O)O; Orn = NCCC[C@H](N)C(=O)O; dDap = NC[C@@H](N)C(=O)O; Dab = NCC[C@H](N)C(=O)O; Dap = NC[C@H](N)C(=O)O; CO = O=C([*:1])[*:2]

tested on: human red blood cells (hRBC); assay: Hemolysis of human red blood cells; format: cell-based; conditions: red cells of human, 1 h, 100
Outline: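 Washed fresh human erythrocytes (20% v/v, about 0.9×10^9 cells/ml final) incubated with peptide at 100 μg/ml for 1 h at 37° C with shaking. Supernatant OD540 read; hemolysis expressed relative to 2.5% Triton X-100 (100%) and PBS with 0.001% acetic acid (0%).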

Row | SMILES | Hemolysis at 100 μg/ml [%]
1 | C[C@@H]1NC(=O)[C@H](C2CCCCC2)NC(=O)[C@H](CCN)NC(=O)[C@H](Cc2c[nH]c3ccccc23)NC(=O)[C@H](CCN)NC(=O)[C@@H](CCN)NC(=O)[C@H](CCCN)NC(=O)[C@H](CCN)NC(=O)[C@H](C(C)(C)C)NC(=O)[C@H](CO)NC(=O)[C@H](Cc2ccc(O)cc2)NC(=O)[C@@H]2CCCN2C(=O)[C@H]2CCCN2C(=O)[C@H](CO)NC1=O [compound 69] (cyclo(YS[Tle][Dab][Orn][dDab][Dab]W[Dab][Chg]AS[dP]P)) | 7
2 | C[C@@H]1NC(=O)[C@H](C(C)(C)C)NC(=O)[C@H](CCN)NC(=O)[C@H](Cc2c[nH]c3ccccc23)NC(=O)[C@H](CCN)NC(=O)[C@@H](CCN)NC(=O)[C@H](CCCN)NC(=O)[C@H](CCN)NC(=O)[C@H](CC2CCCCC2)NC(=O)[C@H](CCNCc2ccccn2)NC(=O)[C@H](Cc2c[nH]c3ccccc23)NC(=O)[C@@H]2CCCN2C(=O)[C@H]2CCCN2C(=O)[C@H](CO)NC1=O [compound 12] (cyclo(W[X2][Cha][Dab][Orn][dDab][Dab]W[Dab][Tle]AS[dP]P)) | 0
3 | COC[C@@H]1NC(=O)[C@H](C(C)(C)C)NC(=O)[C@H](CCN)NC(=O)[C@H](Cc2c[nH]c3ccccc23)NC(=O)[C@H](CCN)NC(=O)[C@@H](CCN)NC(=O)[C@H](CCCN)NC(=O)[C@H](CCN)NC(=O)[C@H](CC2CCCCC2)NC(=O)[C@H](CN)NC(=O)[C@H](Cc2c[nH]c3ccccc23)NC(=O)[C@@H]2CCCN2C(=O)[C@H]2CCCN2C(=O)[C@H](CO)NC1=O [Ex. 6] (cyclo(W[Dap][Cha][Dab][Orn][dDab][Dab]W[Dab][Tle]S(Me)S[dP]P)) | 3
4 | C[C@@H]1NC(=O)[C@H](C(C)(C)C)NC(=O)[C@H](CCN)NC(=O)[C@H](Cc2c[nH]c3ccccc23)NC(=O)[C@H](CCN)NC(=O)[C@@H](CCN)NC(=O)[C@H](CCCN)NC(=O)[C@H](CCN)NC(=O)[C@H](CC2CCCCC2)NC(=O)[C@H](CO)NC(=O)[C@H](Cc2cscn2)NC(=O)[C@@H]2CCCN2C(=O)[C@H]2CCCN2C(=O)[C@H](CO)NC1=O [compound 22] (cyclo([Ala(4-thiazolyl)]S[Cha][Dab][Orn][dDab][Dab]W[Dab][Tle]AS[dP]P)) | 0
5 | CC(C)[C@@H]1NC(=O)[C@@H]2[C@@H](O)CCN2C(=O)[C@H]2CCCN2C(=O)[C@H](CO)NC(=O)[C@H](C)NC(=O)[C@H](C(C)(C)C)NC(=O)[C@H](CCN)NC(=O)[C@H](Cc2c[nH]c3ccccc23)NC(=O)[C@H](CCN)NC(=O)[C@@H](CCN)NC(=O)[C@H](CCCN)NC(=O)[C@H](CCN)NC(=O)[C@H](Cc2ccc(O)cc2)NC(=O)[C@H](CO)NC1=O [compound 56] (cyclo(AS[dP][Pro(3S-OH)]VSY[Dab][Orn][dDab][Dab]W[Dab][Tle])) | 1
6 | C[C@@H]1NC(=O)[C@H](C(C)(C)C)NC(=O)[C@H](CCN)NC(=O)[C@H](Cc2c[nH]c3ccccc23)NC(=O)[C@H](CCN)NC(=O)[C@@H](CCN)NC(=O)[C@H](CCCN)NC(=O)[C@H](CCN)NC(=O)[C@H](CC2CCCCC2)NC(=O)[C@H](CNC(=O)NCc2cccnc2)NC(=O)[C@H](Cc2c[nH]c3ccccc23)NC(=O)[C@@H]2CCCN2C(=O)[C@H]2CCCN2C(=O)[C@H](CO)NC1=O [compound 16] (cyclo(W[Dap]([CO-NH(3-picolyl)])[Cha][Dab][Orn][dDab][Dab]W[Dab][Tle]AS[dP]P)) | 7
7 | CC(C)C[C@@H]1NC(=O)[C@@H]2CCCN2C(=O)[C@H]2CCCN2C(=O)[C@H](CO)NC(=O)[C@H](C)NC(=O)[C@H](CC2CCCCC2)NC(=O)[C@H](CCN)NC(=O)[C@H](Cc2c[nH]c3ccccc23)NC(=O)[C@H](CCN)NC(=O)[C@@H](CCN)NC(=O)[C@H](CCCCN)NC(=O)[C@H](CCN)NC(=O)[C@H](Cc2ccc(O)cc2)NC(=O)[C@H](C)NC1=O [compound 128] (cyclo(LAY[Dab]K[dDab][Dab]W[Dab][Cha]AS[dP]P)) | 2
8 | C[C@@H]1NC(=O)[C@H](Cc2c[nH]c3ccccc23)NC(=O)[C@@H]2CCCN2C(=O)[C@H]2CCCN2C(=O)[C@H](CO)NC(=O)[C@H](C)NC(=O)[C@H](C2CCCCC2)NC(=O)[C@H](CCN)NC(=O)[C@H](Cc2c[nH]c3ccccc23)NC(=O)[C@H](CCN)NC(=O)[C@@H](CCN)NC(=O)[C@H](CCCN)NC(=O)[C@H](CCN)NC(=O)[C@H](Cc2ccc(O)cc2)NC1=O [compound 77] (cyclo(WAY[Dab][Orn][dDab][Dab]W[Dab][Chg]AS[dP]P)) | 1
9 | CC(C)C[C@@H]1NC(=O)[C@@H]2CCCN2C(=O)[C@H]2CCCN2C(=O)[C@H](CO)NC(=O)[C@H](C)NC(=O)[C@H](C(C)(C)C)NC(=O)[C@H](CN)NC(=O)[C@H](Cc2c[nH]c3ccccc23)NC(=O)[C@H](CCN)NC(=O)[C@@H](CCN)NC(=O)[C@H](CCCN)NC(=O)[C@H](CCN)NC(=O)[C@H](Cc2ccc(O)cc2)NC(=O)[C@H](CO)NC1=O [compound 101] (cyclo(LSY[Dab][Orn][dDab][Dab]W[Dap][Tle]AS[dP]P)) | 1
10 | CC(C)C[C@@H]1NC(=O)[C@@H]2CCCN2C(=O)[C@H]2CCCN2C(=O)[C@H](CO)NC(=O)[C@H](C)NC(=O)[C@H](C(C)(C)C)NC(=O)[C@H](CCN)NC(=O)[C@H](Cc2c[nH]c3ccccc23)NC(=O)[C@H](CCCNC(=N)N)NC(=O)[C@@H](CCN)NC(=O)[C@H](CCCN)NC(=O)[C@H](CCN)NC(=O)[C@H](Cc2ccc(O)cc2)NC(=O)[C@H](CO)NC1=O [compound 102] (cyclo(LSY[Dab][Orn][dDab]RW[Dab][Tle]AS[dP]P)) | 0
11 | CC(C)C[C@@H]1NC(=O)[C@@H]2[C@@H](O)CCN2C(=O)[C@H]2CCCN2C(=O)[C@H](CO)NC(=O)[C@H](C)NC(=O)[C@H](C(C)(C)C)NC(=O)[C@H](CCN)NC(=O)[C@H](Cc2c[nH]c3ccccc23)NC(=O)[C@H](CCN)NC(=O)[C@@H](CCN)NC(=O)[C@H](CCCN)NC(=O)[C@H](CCN)NC(=O)[C@H](Cc2ccc(O)cc2)NC(=O)[C@H](CO)NC1=O [compound 57] (cyclo(AS[dP][Pro(3S-OH)]LSY[Dab][Orn][dDab][Dab]W[Dab][Tle])) | 1
12 | C[C@@H]1NC(=O)[C@H](C(C)(C)C)NC(=O)[C@H](CCN)NC(=O)[C@H](Cc2c[nH]c3ccccc23)NC(=O)[C@H](CCN)NC(=O)[C@@H](CN)NC(=O)[C@H](CCCN)NC(=O)[C@H](CCN)NC(=O)[C@H](CC2CCCCC2)NC(=O)[C@H](CO)NC(=O)[C@H](Cc2c[nH]c3ccccc23)NC(=O)[C@@H]2CCCN2C(=O)[C@H]2CCCN2C(=O)[C@H](CO)NC1=O [compound 19] (cyclo(WS[Cha][Dab][Orn][dDap][Dab]W[Dab][Tle]AS[dP]P)) | 3
13 | COc1ccc(C[C@@H]2NC(=O)[C@H](CCN)NC(=O)[C@H](Cc3c[nH]c4ccccc34)NC(=O)[C@H](CCN)NC(=O)[C@@H](CCN)NC(=O)[C@H](CCCN)NC(=O)[C@H](CCN)NC(=O)[C@H](Cc3ccc(O)cc3)NC(=O)[C@H](CO)NC(=O)[C@H](CC(C)C)NC(=O)[C@@H]3CCCN3C(=O)[C@H]3CCCN3C(=O)[C@H](CO)NC(=O)[C@H](C)NC2=O)cc1 [compound 32] (cyclo(LSY[Dab][Orn][dDab][Dab]W[Dab]Y(Me)AS[dP]P)) | 1
14 | CC(C)C[C@@H]1NC(=O)[C@@H]2CCCN2C(=O)[C@H]2CCCN2C(=O)[C@H](CO)NC(=O)[C@H](C)NC(=O)[C@H](Cc2c[nH]c3ccccc23)NC(=O)[C@H](CCN)NC(=O)[C@H](Cc2c[nH]c3ccccc23)NC(=O)[C@H](CCN)NC(=O)[C@@H](CCN)NC(=O)[C@H](CCCN)NC(=O)[C@H](CCN)NC(=O)[C@H](Cc2ccc(O)cc2)NC(=O)[C@H](CO)NC1=O [compound 34] (cyclo(LSY[Dab][Orn][dDab][Dab]W[Dab]WAS[dP]P)) | 1
15 | C[C@@H]1NC(=O)[C@H](C(C)(C)C)NC(=O)[C@H](CCN)NC(=O)[C@H](Cc2c[nH]c3ccccc23)NC(=O)[C@H](CCN)NC(=O)[C@@H](CCN)NC(=O)[C@H](CCCN)NC(=O)[C@H](CCN)NC(=O)[C@H](CC2CCCCC2)NC(=O)[C@H](CNC(=O)[C@@H](N)[C@@H](C)O)NC(=O)[C@H](Cc2c[nH]c3ccccc23)NC(=O)[C@@H]2CCCN2C(=O)[C@H]2CCCN2C(=O)[C@H](CO)NC1=O [compound 14] (cyclo(W[Dap](Thr)[Cha][Dab][Orn][dDab][Dab]W[Dab][Tle]AS[dP]P)) | 0
16 | CC(C)C[C@@H]1NC(=O)[C@@H]2CCCN2C(=O)[C@H]2CCCN2C(=O)[C@H](CO)NC(=O)[C@H](CC(N)=O)NC(=O)[C@H](C(C)(C)C)NC(=O)[C@H](CCN)NC(=O)[C@H](Cc2c[nH]c3ccccc23)NC(=O)[C@H](CCN)NC(=O)[C@@H](CCN)NC(=O)[C@H](CCCN)NC(=O)[C@H](CCN)NC(=O)[C@H](Cc2ccc(O)cc2)NC(=O)[C@H](CC(N)=O)NC1=O [compound 121] (cyclo(LNY[Dab][Orn][dDab][Dab]W[Dab][Tle]NS[dP]P)) | 0
17 | COc1ccc(C[C@@H]2NC(=O)[C@H](CO)NC(=O)[C@H](CC(C)C)NC(=O)[C@@H]3CCCN3C(=O)[C@H]3CCCN3C(=O)[C@H](CO)NC(=O)[C@H](C)NC(=O)[C@H](C(C)(C)C)NC(=O)[C@H](CCN)NC(=O)[C@H](Cc3c[nH]c4ccccc34)NC(=O)[C@H](CCN)NC(=O)[C@@H](CCN)NC(=O)[C@H](CCCN)NC(=O)[C@H](CCN)NC2=O)cc1 [compound 27] (cyclo(LSY(Me)[Dab][Orn][dDab][Dab]W[Dab][Tle]AS[dP]P)) | 1
18 | CC(C)[C@@H]1NC(=O)[C@@H]2CCCN2C(=O)[C@H]2CCCN2C(=O)[C@H](CO)NC(=O)[C@H](C)NC(=O)[C@H](C(C)(C)C)NC(=O)[C@H](CCN)NC(=O)[C@H](Cc2c[nH]c3ccccc23)NC(=O)[C@H](CCN)NC(=O)[C@@H](CCN)NC(=O)[C@H](CCCN)NC(=O)[C@H](CCN)NC(=O)[C@H](CC2CCCCC2)NC(=O)[C@H](CO)NC1=O [compound 50] (cyclo(VS[Cha][Dab][Orn][dDab][Dab]W[Dab][Tle]AS[dP]P)) | 4
